Measurements reported in PubChem BioAssay AID1963435 (Molecular Pharmacology Branch, DTP, NCI, 2024).

System: PANC-1 complex spheroid growth, percent test/control
Assay: Anticancer human tumor PANC-1 cell line growth inhibition [Asc];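 note: spheroids exposed to agents for 7 days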;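 for viability, T/C: percent viability relative to DMSO vehicle wells taken as 100%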
Conditions: for IC50: curve of first compound; for viability, T/C: stronger effect = lower value
Outline: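 Complex spheroids combining tumor cells with HUVEC endothelial cells and human MSCs, at 37 degrees C, 5% CO2; agents tested alone or combined, half-log dilutions from at or near clinical Cmax, or 10 microM if Cmax unknown.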

[1] = second compound 0.00949 µM, first compound 0.00316 µM
[2] = second compound 0.00949 µM, first compound 0.01 µM
[3] = second compound 0.00949 µM, first compound 0.0316 µM
[4] = second compound 0.00949 µM, first compound 0.1 µM
[5] = second compound 0.00949 µM, first compound 0.316 µM
[6] = second compound 0.00949 µM, first compound 1 µM
[7] = second compound 0.03 µM, first compound 0.00316 µM
[8] = second compound 0.03 µM, first compound 0.01 µM
[9] = second compound 0.03 µM, first compound 0.0316 µM
[10] = second compound 0.03 µM, first compound 0.1 µM
[11] = second compound 0.03 µM, first compound 0.316 µM
[12] = second compound 0.03 µM, first compound 1 µM
[13] = second compound 0.0949 µM, first compound 0.00316 µM
[14] = second compound 0.0949 µM, first compound 0.01 µM
[15] = second compound 0.0949 µM, first compound 0.0316 µM
[16] = second compound 0.0949 µM, first compound 0.1 µM
[17] = second compound 0.0949 µM, first compound 0.316 µM
[18] = second compound 0.0949 µM, first compound 1 µM
[19] = second compound 0.3 µM, first compound 0.00316 µM
[20] = second compound 0.3 µM, first compound 0.01 µM
[21] = second compound 0.3 µM, first compound 0.0316 µM
[22] = second compound 0.3 µM, first compound 0.1 µM
[23] = second compound 0.3 µM, first compound 0.316 µM
[24] = second compound 0.3 µM, first compound 1 µM
[25] = second compound 0.949 µM, first compound 0.00316 µM
[26] = second compound 0.949 µM, first compound 0.01 µM
[27] = second compound 0.949 µM, first compound 0.0316 µM
[28] = second compound 0.949 µM, first compound 0.1 µM
[29] = second compound 0.949 µM, first compound 0.316 µM
[30] = second compound 0.949 µM, first compound 1 µM
[31] = second compound 3 µM, first compound 0.00316 µM
[32] = second compound 3 µM, first compound 0.01 µM
[33] = second compound 3 µM, first compound 0.0316 µM
[34] = second compound 3 µM, first compound 0.1 µM
[35] = second compound 3 µM, first compound 0.316 µM
[36] = second compound 3 µM, first compound 1 µM

`O=C(c1ccc(F)c(F)c1Nc1ccc(I)cc1F)N1CC(O)([C@@H]2CCCCN2)C1` + CNC(C)C(=O)NC1CN(S(=O)(=O)c2cccc(S(=O)(=O)N3CCC4CCC(C(=O)NC(c5ccccc5)c5ccccc5)N4C(=O)C(NC(=O)C(C)NC)C3)c2)CCC2CCC(C(=O)NC(c3ccccc3)c3ccccc3)N2C1=O gave an IC50 (second compound 0.00316 µM) greater than 1000 nM, an IC50 (second compound 0.01 µM) greater than 1000 nM and an IC50 (second compound 0.0316 µM) greater than 1000 nM. It also gave an IC50 (second compound 0.1 µM) greater than 1000 nM, an IC50 (second compound 0.316 µM) greater than 1000 nM and an IC50 (second compound 1 µM) greater than 1000 nM. The viability, T/C (second compound 0.00316 µM, first compound 0.00316 µM) was 98.6%, the viability, T/C (second compound 0.00316 µM, first compound 0.01 µM) was 88.8% and the viability, T/C (second compound 0.00316 µM, first compound 0.0316 µM) was 90.1%. It also gave a viability, T/C (second compound 0.00316 µM, first compound 0.1 µM) of 88%, a viability, T/C (second compound 0.00316 µM, first compound 0.316 µM) of 90.5% and a viability, T/C (second compound 0.00316 µM, first compound 1 µM) of 84.9%. It also gave a viability, T/C (second compound 0.01 µM, first compound 0.00316 µM) of 104%, a viability, T/C (second compound 0.01 µM, first compound 0.01 µM) of 86.1% and a viability, T/C (second compound 0.01 µM, first compound 0.0316 µM) of 89.5%. It also gave a viability, T/C (second compound 0.01 µM, first compound 0.1 µM) of 89%, a viability, T/C (second compound 0.01 µM, first compound 0.316 µM) of 85.9% and a viability, T/C (second compound 0.01 µM, first compound 1 µM) of 85.2%. The viability, T/C (second compound 0.0316 µM, first compound 0.00316 µM) was 88.2%, the viability, T/C (second compound 0.0316 µM, first compound 0.01 µM) was 86.1% and the viability, T/C (second compound 0.0316 µM, first compound 0.0316 µM) was 118%. For the same compound, the viability, T/C (second compound 0.0316 µM, first compound 0.1 µM) was 93.6%, the viability, T/C (second compound 0.0316 µM, first compound 0.316 µM) was 86.6% and the viability, T/C (second compound 0.0316 µM, first compound 1 µM) was 87.3%. It also gave a viability, T/C (second compound 0.1 µM, first compound 0.00316 µM) of 101%, a viability, T/C (second compound 0.1 µM, first compound 0.01 µM) of 86.4% and a viability, T/C (second compound 0.1 µM, first compound 0.0316 µM) of 90.7%. It also gave a viability, T/C (second compound 0.1 µM, first compound 0.1 µM) of 90.3%, a viability, T/C (second compound 0.1 µM, first compound 0.316 µM) of 88.4% and a viability, T/C (second compound 0.1 µM, first compound 1 µM) of 87.3%. The viability, T/C (second compound 0.316 µM, first compound 0.00316 µM) was 95.2%, the viability, T/C (second compound 0.316 µM, first compound 0.01 µM) was 89.5% and the viability, T/C (second compound 0.316 µM, first compound 0.0316 µM) was 98.9%. For the same compound, the viability, T/C (second compound 0.316 µM, first compound 0.1 µM) was 89.9%, the viability, T/C (second compound 0.316 µM, first compound 0.316 µM) was 96.8% and the viability, T/C (second compound 0.316 µM, first compound 1 µM) was 89.3%. It also gave a viability, T/C (second compound 1 µM, first compound 0.00316 µM) of 91.4%, a viability, T/C (second compound 1 µM, first compound 0.01 µM) of 93% and a viability, T/C (second compound 1 µM, first compound 0.0316 µM) of 89.7%. For the same compound, the viability, T/C (second compound 1 µM, first compound 0.1 µM) was 90%, the viability, T/C (second compound 1 µM, first compound 0.316 µM) was 90.6% and the viability, T/C (second compound 1 µM, first compound 1 µM) was 91.6%.

For `CCN1CCN(Cc2ccc(Nc3ncc(F)c(-c4cc(F)c5nc(C)n(C(C)C)c5c4)n3)nc2)CC1` + CCN1C(C(=O)NC23CCC(C(=O)O)(CC2)CC3)C(c2cccc(Cl)c2F)C2(C(=O)Nc3cc(Cl)ccc32)C12CCCCC2, the IC50 (second compound 0.00949 µM) was greater than 1000 nM, the IC50 (second compound 0.03 µM) was greater than 1000 nM and the IC50 (second compound 0.0949 µM) was greater than 1000 nM. It also gave an IC50 (second compound 0.3 µM) greater than 1000 nM, an IC50 (second compound 0.949 µM) greater than 1000 nM and an IC50 (second compound 3 µM) greater than 1000 nM. It also gave a viability, T/C [1] of 112%, a viability, T/C [2] of 102% and a viability, T/C [3] of 109%. The viability, T/C [4] was 117%, the viability, T/C [5] was 126% and the viability, T/C [6] was 139%. For the same compound, the viability, T/C [7] was 105%, the viability, T/C [8] was 97.8% and the viability, T/C [9] was 114%. It also gave a viability, T/C [10] of 114%, a viability, T/C [11] of 131% and a viability, T/C [12] of 141%. It also gave a viability, T/C [13] of 108%, a viability, T/C [14] of 108% and a viability, T/C [15] of 105%. The viability, T/C [16] was 105%, the viability, T/C [17] was 125% and the viability, T/C [18] was 140%. The viability, T/C [19] was 99.8%, the viability, T/C [20] was 131% and the viability, T/C [21] was 110%. It also gave a viability, T/C [22] of 117%, a viability, T/C [23] of 124% and a viability, T/C [24] of 150%. For the same compound, the viability, T/C [25] was 102%, the viability, T/C [26] was 119% and the viability, T/C [27] was 121%. The viability, T/C [28] was 111%, the viability, T/C [29] was 128% and the viability, T/C [30] was 140%. The viability, T/C [31] was 116%, the viability, T/C [32] was 125% and the viability, T/C [33] was 118%. The viability, T/C [34] was 124%, the viability, T/C [35] was 131% and the viability, T/C [36] was 157%.

`CNC(C)C(=O)NC1CN(S(=O)(=O)c2cccc(S(=O)(=O)N3CCC4CCC(C(=O)NC(c5ccccc5)c5ccccc5)N4C(=O)C(NC(=O)C(C)NC)C3)c2)CCC2CCC(C(=O)NC(c3ccccc3)c3ccccc3)N2C1=O` (stereo unspecified) + CCN1C(C(=O)NC23CCC(C(=O)O)(CC2)CC3)C(c2cccc(Cl)c2F)C2(C(=O)Nc3cc(Cl)ccc32)C12CCCCC2 gave an IC50 (second compound 0.00949 µM) greater than 1000 nM, an IC50 (second compound 0.03 µM) greater than 1000 nM and an IC50 (second compound 0.0949 µM) greater than 1000 nM. For the same compound, the IC50 (second compound 0.3 µM) was greater than 1000 nM, the IC50 (second compound 0.949 µM) was greater than 1000 nM and the IC50 (second compound 3 µM) was greater than 1000 nM. It also gave a viability, T/C [1] of 104%, a viability, T/C [2] of 96.6% and a viability, T/C [3] of 103%. The viability, T/C [4] was 89.4%, the viability, T/C [5] was 97% and the viability, T/C [6] was 86.5%. It also gave a viability, T/C [7] of 103%, a viability, T/C [8] of 93.9% and a viability, T/C [9] of 90.9%. It also gave a viability, T/C [10] of 93.8%, a viability, T/C [11] of 97.2% and a viability, T/C [12] of 85.4%. For the same compound, the viability, T/C [13] was 90.3%, the viability, T/C [14] was 96.9% and the viability, T/C [15] was 89.4%. For the same compound, the viability, T/C [16] was 91.2%, the viability, T/C [17] was 92.2% and the viability, T/C [18] was 86.8%. The viability, T/C [19] was 114%, the viability, T/C [20] was 94.1% and the viability, T/C [21] was 90.7%. For the same compound, the viability, T/C [22] was 101%, the viability, T/C [23] was 91.3% and the viability, T/C [24] was 90.6%. For the same compound, the viability, T/C [25] was 106%, the viability, T/C [26] was 100% and the viability, T/C [27] was 106%. The viability, T/C [28] was 97.8%, the viability, T/C [29] was 100% and the viability, T/C [30] was 93.2%. For the same compound, the viability, T/C [31] was 113%, the viability, T/C [32] was 111% and the viability, T/C [33] was 108%. The viability, T/C [34] was 103%, the viability, T/C [35] was 109% and the viability, T/C [36] was 89.1%.
